In patent US20060079453A1, “Hla binding peptides and their uses” (priority 2002, published 2006):
Read-outs that look alike come from different tables or passages of the source. No end group written: not given here.

What was measured:
Assay in all cases: biochemical
Assay type in all cases: binding
HLA-DR DRB3*0101 (DR52) = HLA-DR DRB3*0101 (DR52) (Homo sapiens, UniProt P01903+P79483)
HLA-DR DRB1*1501 (DR15) = HLA-DR DRB1*1501 (DR15) (Homo sapiens, UniProt P01903+P01911)
HLA-DR DRB1*1302 (DR13) = HLA-DR DRB1*1302 (DR13) (Homo sapiens, UniProt P01903+P01911, A100E/A169T/K41T/L162R/M171V/P40S/Q125H/Q178H/Q39Y/Q99D/R42S/S66N/T262R/V115G/W38E/Y61H)
HLA-DR DRB1*1101 (DR11) = HLA-DR DRB1*1101 (DR11) (Homo sapiens, UniProt P01903+P01911, A100R/A169T/A87E/I96F/K41T/L162R/M171V/P40S/Q125H/Q178H/Q39Y/Q99D/R42S/S66Y/T262R/V115G/W38E)
HLA-DR DRB5*0101 (DR51) = HLA-DR DRB5*0101 (DR51) (Homo sapiens, UniProt P01903+Q30154)
HLA-DR DRB1*0401 (DR4) = HLA-DR DRB1*0401 (DR4) (Homo sapiens, UniProt P01903+P01911, A100K/A169T/F76Y/I96L/K127E/L162R/M171V/N62H/P40V/Q125Y/R42H/S133A/S149N/S66Y/V115G/V209L/W38E); conditions: DRB1 *0401
HLA-DR DRB1*0301 (DR3) = HLA-DR DRB1*0301 (DR3) (Homo sapiens, UniProt P01903+P01911, A100K/A102G/A103R/A169T/F55Y/I96L/K41T/L162R/M171V/P40S/Q125H/Q178H/Q39Y/R42S/S66N/T106N/T262R/W38E/Y61H)
HLA-DR DRB1*0701 (DR7) = HLA-DR DRB1*0701 (DR7) (Homo sapiens, UniProt P01903+P01911, A100R/A102G/A103Q/D57E/D86V/E43K/F76Y/K127E/L162R/M171V/P40G/Q125H/Q99D/R33Q/R42Y/R54Q/S133A/S66F/T210M/V115G/Y107V/Y59L/Y89S); conditions: DRB1 *0701
HLA-DR DRB4*0101 (DR53) = HLA-DR DRB4*0101 (DR53) (Homo sapiens, UniProt P01903+P13762, G164S)
HLA-DR DRB1*0901 (DR9) = HLA-DR DRB1*0901 (DR9) (Homo sapiens, UniProt P01903+P01911, A100R/A103E/D57H/D86V/F55Y/F60I/F76Y/I96F/K127E/L162R/M171V/P40D/Q125H/Q99R/R33Q/R42F/S133A/S66N/T210M/V115G/W38K/Y107V/Y59G/Y89S); conditions: DRB1 *0901
HLA-DR DRB1*0802 (DR8) = HLA-DR DRB1*0802 (DR8) (Homo sapiens, UniProt P01903+P01911, A100R/A103L/A169T/F76Y/H45Y/I96F/K41T/L162R/M171V/P40S/Q125H/Q178H/Q39Y/Q99D/R218S/R42G/S66Y/V115G/W38E)

Chain of HLA-DR DRB1*0301 (DR3) (P01903 26-254 limits assumed, other chains not shown): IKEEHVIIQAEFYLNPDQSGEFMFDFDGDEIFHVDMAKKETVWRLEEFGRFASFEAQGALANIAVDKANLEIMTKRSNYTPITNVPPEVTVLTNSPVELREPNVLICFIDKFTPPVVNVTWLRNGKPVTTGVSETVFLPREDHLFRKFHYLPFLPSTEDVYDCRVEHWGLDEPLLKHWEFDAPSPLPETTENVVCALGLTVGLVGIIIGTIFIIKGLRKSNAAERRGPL
Chain of HLA-DR DRB1*1101 (DR11) (P01903 26-254 limits assumed, other chains not shown): as above
Chain of HLA-DR DRB1*1302 (DR13) (P01903 26-254 limits assumed, other chains not shown): as above

**Q.** For FAGIRRDGLLLRIVD, which IC50 (HLA-DR DRB3*0101 (DR52); read-out: DRB3 *0101) is on record?
**A.** Its IC50 is 553 nM.

**Q.** And the IC50 (HLA-DR DRB1*1501 (DR15); read-out: DRBI *1501)?
**A.** The IC50 was 28 nM.

**Q.** With FPTIPLSRLFDNAML as the sequence, how does the IC50 (HLA-DR DRB3*0101 (DR52); read-out: DRB3 *0101) read?
**A.** Its IC50 is 121000 nM.

**Q.** What about the IC50 (HLA-DR DRB1*1302 (DR13); read-out: DRBI *1302) of the same sequence?
**A.** The IC50 was 9310 nM.

**Q.** And the IC50 (HLA-DR DRB1*1101 (DR11); read-out: DRB1 *1101)?
**A.** Its IC50 is 46400 nM.

**Q.** What about the IC50 (HLA-DR DRB1*1501 (DR15); read-out: DRBI *1501) of the same sequence?
**A.** The IC50 was 2770 nM.

**Q.** With FVNQHLTGSHLVEAL as the sequence, how does the IC50 (HLA-DR DRB5*0101 (DR51); read-out: DRB5 *0101) read?
**A.** The IC50 was greater than 43300 nM.

**Q.** What about the IC50 (HLA-DR DRB3*0101 (DR52); read-out: DRB3 *0101) of the same sequence?
**A.** The IC50 was 94500 nM.

**Q.** What about the IC50 (HLA-DR DRB1*1101 (DR11); read-out: DRB1 *1101) of the same sequence?
**A.** The IC50 was greater than 10500 nM.

**Q.** And the IC50 (HLA-DR DRB1*1501 (DR15); read-out: DRBI *1501)?
**A.** The IC50 was 799 nM.

**Q.** With GAAVVHEIVRSFGTL as the sequence, how does the IC50 (HLA-DR DRB3*0101 (DR52)) read?
**A.** The IC50 was 788 nM.

**Q.** For GAGPKDNGGACGYKDVDKAP, which IC50 (HLA-DR DRB1*0401 (DR4)) is on record?
**A.** The IC50 was greater than 667 nM.

**Q.** What about the IC50 (HLA-DR DRB1*0301 (DR3)) of the same sequence?
**A.** Its IC50 is greater than 30000 nM.

**Q.** And the IC50 (HLA-DR DRB3*0101 (DR52))?
**A.** The IC50 was greater than 20000 nM.

**Q.** And the IC50 (HLA-DR DRB1*0701 (DR7))?
**A.** Its IC50 is greater than 12500 nM.

**Q.** What does the source list for GGVLVNEILNHMKRA?
**A.** IC50 (HLA-DR DRB5*0101 (DR51); read-out: DRB5 *0101): 8.7 nM; IC50 (HLA-DR DRB4*0101 (DR53); read-out: DRB4 *0101): 5.8 nM; IC50 (HLA-DR DRB3*0101 (DR52); read-out: DRB3 *0101): 8120 nM; IC50 (HLA-DR DRB1*1302 (DR13); read-out: DRBI *1302): 49 nM; IC50 (HLA-DR DRB1*1101 (DR11); read-out: DRB1 *1101): 255 nM; IC50 (HLA-DR DRB1*1501 (DR15); read-out: DRBI *1501): 576 nM

**Q.** What does the source list for HQAISPRTLNSPAIF?
**A.** IC50 (HLA-DR DRB5*0101 (DR51); read-out: DRB5 *0101): > 200000 nM; IC50 (HLA-DR DRB4*0101 (DR53); read-out: DRB4 *0101): 130 nM; IC50 (HLA-DR DRB3*0101 (DR52); read-out: DRB3 *0101): > 83300 nM; IC50 (HLA-DR DRB1*1101 (DR11); read-out: DRB1 *1101): 33700 nM; IC50 (HLA-DR DRB1*1501 (DR15); read-out: DRBI *1501): 8110 nM

**Q.** HSLFHPEDTGQVFQV was tested. Which IC50 (HLA-DR DRB3*0101 (DR52); read-out: DRB3 *0101) did it give?
**A.** The IC50 was 553 nM.

**Q.** How did the IC50 (HLA-DR DRB1*0401 (DR4)) turn out when IAKVPPGPNITAEYGDKWLD was run?
**A.** The IC50 was greater than 667 nM.

**Q.** What about the IC50 (HLA-DR DRB1*0301 (DR3)) of the same sequence?
**A.** The IC50 was greater than 30000 nM.

**Q.** And the IC50 (HLA-DR DRB3*0101 (DR52))?
**A.** The IC50 was greater than 20000 nM.

**Q.** And the IC50 (HLA-DR DRB1*0701 (DR7))?
**A.** Its IC50 is greater than 12500 nM.

**Q.** IFAIFRQDSSSTGWN was tested. Which IC50 (HLA-DR DRB5*0101 (DR51); DRB5 *0101) did it give?
**A.** The IC50 was 109000 nM.

**Q.** And the IC50 (HLA-DR DRB1*0901 (DR9))?
**A.** Its IC50 is 970 nM.

**Q.** What about the IC50 (HLA-DR DRB4*0101 (DR53); DRB4 *0101) of the same sequence?
**A.** Its IC50 is 30 nM.

**Q.** And the IC50 (HLA-DR DRB1*0401 (DR4))?
**A.** The IC50 was 9.6 nM.

**Q.** And the IC50 (HLA-DR DRB1*0301 (DR3))?
**A.** The IC50 was 402 nM.

**Q.** What about the IC50 (HLA-DR DRB1*1302 (DR13); DRBI *1302) of the same sequence?
**A.** Its IC50 is 775 nM.

**Q.** What about the IC50 (HLA-DR DRB1*1101 (DR11); DRB1 *1101) of the same sequence?
**A.** The IC50 was 4560 nM.

**Q.** And the IC50 (HLA-DR DRB1*1501 (DR15); DRBI *1501)?
**A.** Its IC50 is 204 nM.

**Q.** What about the IC50 (HLA-DR DRB1*0802 (DR8)) of the same sequence?
**A.** The IC50 was 4720 nM.

**Q.** KPAVYTKVVHYRKWI was tested. Which IC50 (HLA-DR DRB5*0101 (DR51); read-out: DRB5 *0101) did it give?
**A.** Its IC50 is 23 nM.

**Q.** And the IC50 (HLA-DR DRB3*0101 (DR52); read-out: DRB3 *0101)?
**A.** Its IC50 is 7190 nM.

**Q.** What about the IC50 (HLA-DR DRB1*1501 (DR15); read-out: DRBI *1501) of the same sequence?
**A.** The IC50 was 401 nM.
